According to PubChem BioAssay (NCI):
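Protocol summary: plate cells (96-well), add compound at 5 concentrations, incubate 48 h, interpolate endpoints linearly. Abbreviation: GI50, concentration required for 50% inhibition of growth. At the TGI there is no net growth.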

Experiments:
Test in all cases: NCI anticancer screen, dose series, 48 h
A498 renal = system: A498 renal
BT-549 breast = system: BT-549 breast
K-562 leukemia = system: K-562 leukemia
NCI-H460 lung = system: NCI-H460 lung
NCI/ADR-RES ovarian = system: NCI/ADR-RES ovarian
SF-268 CNS = system: SF-268 CNS
SK-MEL-2 melanoma = system: SK-MEL-2 melanoma
SNB-19 CNS = system: SNB-19 CNS
SR leukemia = system: SR leukemia
CCRF-CEM leukemia = system: CCRF-CEM leukemia
DMS 114 small cell lung = system: DMS 114 small cell lung
DMS 273 small cell lung = system: DMS 273 small cell lung

| Compound | TGI (A498 renal) | TGI (BT-549 breast) | TGI (K-562 leukemia) | TGI (NCI-H460 lung) | TGI (NCI/ADR-RES ovarian) | TGI (SF-268 CNS) | TGI (SK-MEL-2 melanoma) | TGI (SNB-19 CNS) | TGI (SR leukemia) | GI50 (A498 renal) | GI50 (BT-549 breast) | GI50 (NCI-H460 lung) | GI50 (NCI/ADR-RES ovarian) | GI50 (SF-268 CNS) | GI50 (SK-MEL-2 melanoma) | GI50 (SR leukemia) | TGI (CCRF-CEM leukemia) | TGI (DMS 114 small cell lung) | TGI (DMS 273 small cell lung) |
| --- | --- | --- | --- | --- | --- | --- | --- | --- | --- | --- | --- | --- | --- | --- | --- | --- | --- | --- | --- |
| O=C1c2ccccc2C(=O)c2c(Nc3ccc4c5c(cccc35)C(=O)c3ccccc3-4)cccc21 | > 100 µM | > 100 µM | > 100 µM | > 100 µM | > 100 µM | > 100 µM | > 100 µM | > 100 µM | > 100 µM | – | – | – | – | – | – | – | – | – | – |
| O=c1ccc2nc(-c3ccccc3)nn(-c3ccccn3)c-2c1 | 37.3 µM | 56.8 µM | – | > 100 µM | 67.1 µM | 41 µM | 41.9 µM | – | 18.5 µM | 16.6 µM | 20.8 µM | 70.2 µM | 19.6 µM | 19 µM | 15 µM | 2.97 µM | – | – | – |
| N#CN=C(N)NC(=O)/C=C/C=C/c1ccc(Cl)cc1 | > 100 µM | – | > 100 µM | > 100 µM | – | > 100 µM | > 100 µM | – | > 100 µM | – | – | – | – | – | – | – | > 100 µM | > 100 µM | > 100 µM |
| CC(C)(C)N1C(C(=O)c2ccccc2)C1c1ccccc1 (configuration not stated) | – | – | > 100 µM | > 100 µM | – | – | – | > 100 µM | – | – | – | – | – | – | – | – | > 100 µM | – | > 100 µM |
| CC(=O)OC(C)C1C2=C(C(=O)CC1(C)O)C(=O)c1c(ccc(-c3ccc4c(c3O)C(=O)C3=C(C4=O)C(C(C)OC(C)=O)C(C)(O)CC3=O)c1O)C2=O (configuration not stated) | 8.51 µM | 2.83 µM | > 100 µM | 21.7 µM | 45.1 µM | 19.4 µM | 2.74 µM | 24 µM | 26.5 µM | – | – | – | – | – | – | – | > 100 µM | 1.24 µM | 3.05 µM |
| N#CCCCC[N+]12CN3CN(CN(C3)C1)C2 | > 100 µM | > 100 µM | > 100 µM | > 100 µM | > 100 µM | > 100 µM | > 100 µM | > 100 µM | > 100 µM | – | – | – | – | – | – | – | > 100 µM | – | – |
| CC(C)(C)OC(=O)c1cnc(Cl)cn1 | – | > 100 µM | > 100 µM | > 100 µM | > 100 µM | > 100 µM | 80.6 µM | > 100 µM | > 100 µM | – | – | – | – | – | – | – | 72.7 µM | – | – |
| Nc1nc(N)c2c(n1)NC(=O)c1c(c3ccccc3n1Cc1ccc(Cl)cc1)C2 | 30.8 µM | 49.2 µM | > 100 µM | 36.8 µM | 85.6 µM | > 100 µM | > 100 µM | > 100 µM | – | – | – | – | – | – | – | – | 42.8 µM | – | – |
| CC(C)=CCNc1ncnc2nc[nH]c12 | > 100 µM | > 100 µM | > 100 µM | > 100 µM | > 100 µM | > 100 µM | > 100 µM | > 100 µM | > 100 µM | – | – | – | – | – | – | – | > 100 µM | – | – |
| COc1ccc(C[C@H](N)C(=O)NC2C(CO)OC(n3cnc4c(N(C)C)ncnc43)C2O)cc1 (some centres not stated) | 2.48 µM | – | 1.16 µM | 1.15 µM | – | 2.61 µM | 3.26 µM | – | 0.595 µM | – | – | – | – | – | – | – | 0.845 µM | 0.604 µM | 1.51 µM |
| COC(=O)Nc1nc2cc(OC)c(OC)cc2c(=O)[nH]1 | > 100 µM | > 100 µM | > 100 µM | > 100 µM | > 100 µM | > 100 µM | > 100 µM | > 100 µM | > 100 µM | – | – | – | – | – | – | – | > 100 µM | – | – |
| N=C(c1ccc2ccccc2c1)c1ccccc1Cc1ccccc1 | > 100 µM | > 100 µM | > 100 µM | > 100 µM | > 100 µM | – | 49.6 µM | > 100 µM | > 100 µM | – | – | – | – | – | – | – | 82.8 µM | – | – |
| CCOC(=O)C12CCC(=O)C=C1[C@@H](C)C(=O)CC2 (some centres not stated) | – | – | – | > 100 µM | – | > 100 µM | > 100 µM | – | > 100 µM | – | – | – | – | – | – | – | – | > 100 µM | > 100 µM |
| CSc1nc(Cl)c(Br)c(Sc2nc(N)nc3nc[nH]c23)n1 | – | – | 13.1 µM | 20.1 µM | – | 14.9 µM | 16.9 µM | 30.2 µM | 14.1 µM | – | – | – | – | – | – | – | 9.38 µM | 18.9 µM | 15.6 µM |
| NC(=O)C(N)=O | > 100 µM | – | > 100 µM | > 100 µM | – | > 100 µM | > 100 µM | > 100 µM | > 100 µM | – | – | – | – | – | – | – | > 100 µM | > 100 µM | > 100 µM |
| O=C(CSc1nc2ccccc2s1)c1sc2sc3ccccc3[n+]2c1[O-] | > 100 µM | > 100 µM | > 100 µM | > 100 µM | > 100 µM | > 100 µM | > 100 µM | > 100 µM | > 100 µM | – | – | – | – | – | – | – | – | – | – |
| CC(C)c1cc(CN(C)C)c(O)c(C(C)(C)C)c1 | 41.3 µM | > 100 µM | – | 32.3 µM | > 100 µM | 58.4 µM | 38.6 µM | 53.4 µM | – | – | – | – | – | – | – | – | 30 µM | – | – |
